Measurements as given in paper PMC13500670, “The U1 snRNP protein U1C and Helix H of U1 snRNA are critical for small molecule splicing modulator function” (Nature Communications, 2026).

Experiments:
[1] = tested on: cassette exon / GA/GU iExon inclusion, HEK293 cells, U1C KD; experiment: RNA-seq splicing analysis, compound dose response, U1C knockdown; type: cell-based, human
Excerpt: (§1) Skipped exons are highly enriched for noncanonical 5′ ss sequences (on either the intronic or exonic side), which account for 90% of skipped exons (Supplementary Fig. 8C). For example, among skipped exons with a canonical exonic 5′ ss sequence, 74% contain noncanonical intron sequence. These observations are consistent with the previous published role for U1C stabilization of the U1 snRNA-pre-mRNA duplex at the 5′ ss[25]–[28]. […] We will refer to these as class I exons for clarity in later discussion.
(§2) We next examined the effect of U1C knockdown on compound-mediated splicing. […] We next used the complete dose response to calculate the effective concentration at which deltaPSIcompound-DMSO is 30 (EC-dPSI30).
(§3) HEK293T cells were grown in DMEM media with 10% FBS. 500,000 cells in 1.75 mL of media were plated into a 6-well plate for approximately 6 h. Either siRNA negative control (ThermoFisher Silencer^TM Negative control #2, AM4613) or U1C siRNA (ThermoFisher Silencer^TM Select Pre-designed siRNA, S13225) were transfected for a final concentration of 25 nM using Invitrogen Lipofectamine RNAiMax (13778-150). In brief, 10 μL 5 μM siRNA was added to 115 μL of OptiMEM, while 5 μL Lipofectamine added to 120 μL OptiMEM for 5 minu before mixing the solutions and incubating for 20 min. 250 μL of Lipofectamine:siRNA solution was gentle added to the 1.75 mL cells. After 24 h post-transfection, cells were treated with 10 μL compound resuspended in DMSO. […] Each compound-treated experimental condition was treated and collected in duplicate, while four DMSO only treated samples per siRNA transfection were collected. RNA was isolated using KingFisher^TM Apex instrument and the MagMAX™ mirVana™ Total RNA Isolation Kit (A27828) by Thermo Fisher according to manufacturer’s protocol. Isolated RNA was submitted to Admera Health for library preparation (polyA selected, stranded) and mRNA-sequencing and >20 M 150 bp pair-end reads were returned.
RNAseq and splicing analysis were described earlier using DEDseq (https:// github.com/liwc01/DEDSeq[18]) with minor modifications. RNA sequencing reads were mapped to human genome (hg19) using STAR (version 2.7.10b); only uniquely mapped reads (with MAPQ > 10) with <5 nt/100 nt mismatches and properly paired reads were used. For splicing analysis, all junction reads (read with a gap in alignment indicating splicing) were used, including the ones mapped to unannotated splice sites. Reads were counted for different exons (for cassette exon [CE]) or exonic regions (for A5′ss or A3′ss). For each splicing event, a percent-spliced-in (PSI) value was calculated using the percent of average read number supporting the inclusion among all reads supporting either the inclusion or the exclusion. A minimum of 10 for the denominator of PSI calculation was required. Otherwise, a “NA” value would be generated. PSI values for biological replicates were averaged, and the PSI difference between the two treatment groups was calculated. For a statistical test, a 2 × 2 read counts table was made for each event, with rows for reads supporting inclusion or exclusion, and columns for the two comparing sample groups. […] For biological replicates, each pair of the testing and control sample was analyzed by Fisher’s exact test and the geometric mean of all P-values was reported as a final P-value. […] Potency of splicing modulator was determined by plotting dPSI and identifying the concentration at which the change in PSI reached 30% and reported as EC_dPSI30.

[2] = tested on: U1 snRNA nucleotide 1-16 + artificial HTT 5' ss oligo; experiment: FP: U1 snRNA nucleotide 1-16 + artificial HTT 5' ss oligo with -1A bulge (Supplementary Fig. 5F); type: binding, human
Procedure: To ensure the presence of a −1A bulge in the RNA duplex, we extended the U1 snRNA to nucleotide 1–16 and generated an artificial HTT 5′ ss oligo that added 4 additional nucleotides upstream of the −4C nucleotide to ensure stable base pairing upstream of the potential −1A bulge.
All of 5′-FAM labeled RNA oligos used in this study were synthesized and purified by IDT (USA). Fluorescence polarization (FP) assays were performed in binding buffer (20 mM HEPES pH 7.5, 1 mM MgCl2, 200 mM KCl, 0.01% TritonX-100, 0.1%PEG3350, 2%DMSO) at room temperature using a Envision HTS Plate Reader system (Revvity). […] The equilibrium dissociation constants (Kd) of binding reaction were calculated using the following single-site binding model formula in GraphPad Prism: y=START+(END−START)x/kD+x where x and y represent the concentration of U1 snRNP (or U1 snRNA) and the polarization value measured respectively, START represents the polarization value of protein-free nucleic acid probe, END represents the maximum polarization value when U1 snRNP (or U1 snRNA) binds to the fluorescently labeled 5′ ss oligo. […]

[3] = tested on: cassette exon / GA/GU iExon inclusion, HEK293 cells, scr siRNA; experiment: RNA-seq splicing analysis, compound dose response, scrambled (mock) siRNA; type: cell-based, human
Excerpt: as §1, §2, §3
RNAseq and splicing analysis were described earlier using DEDseq (https:// github.com/liwc01/DEDSeq[18]) with minor modifications. RNA sequencing reads were mapped to human genome (hg19) using STAR (version 2.7.10b); only uniquely mapped reads (with MAPQ > 10) with <5 nt/100 nt mismatches and properly paired reads were used. For splicing analysis, all junction reads (read with a gap in alignment indicating splicing) were used, including the ones mapped to unannotated splice sites. Reads were counted for different exons (for cassette exon [CE]) or exonic regions (for A5′ss or A3′ss). For each splicing event, a percent-spliced-in (PSI) value was calculated using the percent of average read number supporting the inclusion among all reads supporting either the inclusion or the exclusion. A minimum of 10 for the denominator of PSI calculation was required. Otherwise, a “NA” value would be generated. PSI values for biological replicates were averaged, and the PSI difference between the two treatment groups was calculated. For a statistical test, a 2 × 2 read counts table was made for each event, with rows for reads supporting inclusion or exclusion, and columns for the two comparing sample groups. Fisher’s exact test was used for the statistical tests. For biological replicates, each pair of the testing and control sample was analyzed by Fisher’s exact test and the geometric mean of all P-values was reported as a final P-value. PSI change (deltaPSI) of >10% (or < −10%) and P < 0.001 was used to select splicing events being regulated by the treatment. PSI calculation, Fisher’s exact test were performed using R (4.0.5). 5′ ss composition analysis was performed as described in ref. [25]. Potency of splicing modulator was determined by plotting dPSI and identifying the concentration at which the change in PSI reached 30% and reported as EC_dPSI30.

CC1(C)CC(Oc2ccc(-c3ccc(-c4cn[nH]c4)cc3O)nn2)CC(C)(C)N1 [Branaplam, branaplam]
PSI of PDXDC1 iExon ([1]; 5nM, U1C KD, DMSO baseline […]): 2.6 PSI | U1CKD Log10 effect ([1]; Fig. 8C picture, pEC-dPSI30 mock versus U1C KD): -0.51 | geomean pEC_dPSI30 for all GA/GU iExons ([1]; Fig. 8C, U1C KD): 6.10 | effect of compound on binding affinity [2]: no effect | PSI of CMSS1 iExon ([3]; 5nM branaplam): 6 | PSI of WNK4 iExon ([3]; 5nM branaplam): 6.7 | PSI of PDXDC1 iExon ([3]; 5nM, mock, DMSO baseline […]): 2.9 PSI | geomean pEC_dPSI30 for all GA/GU iExons ([3]; Fig. 8C, mock knockdown, -log10 of compound concentration when dPSI achieves 30%): 6.61 | number of exons with GA/GU 5' ss significantly induced with deltaPSI compound-DMSO >10 ([3]; highest concentration of branaplam): approximately 1200 | saturation PSI of PDXDC1 iExon ([3]; highest dose, mock and U1C KD reach similar saturation): ~50
